Laboratory results published in ChEMBL document CHEMBL2440033, “Synthesis of amino-hydroxy-benzocycloheptenones as potent, selective, non-peptidic dinuclear zinc metalloaminopeptidase inhibitors” (Bioorg Med Chem, 2013).

Key:
[1] = biological target: Bacterial leucyl aminopeptidase (Vibrio proteolyticus, UniProt Q01693); assay: Inhibition of Aeromonas proteolytica leucyl aminopeptidase using L-leucine para-notroanilide as substrate assessed as release of para-nitroaniline by Dixon plot analysis
[2] = biological target: T1, Aminopeptidase N (Sus scrofa, UniProt P15145); assay: Inhibition of porcine kidney APN using L-leucine para-notroanilide as substrate assessed as release of para-nitroaniline by Dixon plot analysis
T1 sequence (P15145 whole entry): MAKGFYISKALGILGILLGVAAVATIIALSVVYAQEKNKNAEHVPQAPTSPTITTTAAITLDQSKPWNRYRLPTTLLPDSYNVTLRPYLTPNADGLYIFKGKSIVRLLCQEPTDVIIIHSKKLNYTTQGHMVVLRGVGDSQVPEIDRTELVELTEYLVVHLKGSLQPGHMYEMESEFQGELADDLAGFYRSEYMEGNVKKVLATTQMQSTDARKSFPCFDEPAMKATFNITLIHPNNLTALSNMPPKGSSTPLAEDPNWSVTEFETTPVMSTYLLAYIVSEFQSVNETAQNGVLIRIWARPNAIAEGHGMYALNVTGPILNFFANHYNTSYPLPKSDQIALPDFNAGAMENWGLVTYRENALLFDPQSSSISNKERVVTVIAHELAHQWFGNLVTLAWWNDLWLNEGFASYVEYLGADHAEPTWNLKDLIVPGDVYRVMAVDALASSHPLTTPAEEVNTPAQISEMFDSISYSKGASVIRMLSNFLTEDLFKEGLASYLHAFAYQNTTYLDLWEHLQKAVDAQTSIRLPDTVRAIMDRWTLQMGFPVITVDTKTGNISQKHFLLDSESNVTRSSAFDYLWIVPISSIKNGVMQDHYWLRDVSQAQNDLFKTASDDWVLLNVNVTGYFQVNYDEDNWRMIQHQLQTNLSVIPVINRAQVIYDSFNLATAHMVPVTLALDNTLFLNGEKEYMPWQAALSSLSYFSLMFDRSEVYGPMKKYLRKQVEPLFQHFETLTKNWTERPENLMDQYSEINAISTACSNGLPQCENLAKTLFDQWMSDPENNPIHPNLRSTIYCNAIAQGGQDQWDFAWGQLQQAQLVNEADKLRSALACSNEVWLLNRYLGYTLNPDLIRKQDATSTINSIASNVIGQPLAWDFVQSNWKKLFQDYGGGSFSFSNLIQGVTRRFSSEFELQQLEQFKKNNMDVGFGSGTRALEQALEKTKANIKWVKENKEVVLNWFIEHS

Sequence of Bacterial leucyl aminopeptidase (Q01693 whole entry): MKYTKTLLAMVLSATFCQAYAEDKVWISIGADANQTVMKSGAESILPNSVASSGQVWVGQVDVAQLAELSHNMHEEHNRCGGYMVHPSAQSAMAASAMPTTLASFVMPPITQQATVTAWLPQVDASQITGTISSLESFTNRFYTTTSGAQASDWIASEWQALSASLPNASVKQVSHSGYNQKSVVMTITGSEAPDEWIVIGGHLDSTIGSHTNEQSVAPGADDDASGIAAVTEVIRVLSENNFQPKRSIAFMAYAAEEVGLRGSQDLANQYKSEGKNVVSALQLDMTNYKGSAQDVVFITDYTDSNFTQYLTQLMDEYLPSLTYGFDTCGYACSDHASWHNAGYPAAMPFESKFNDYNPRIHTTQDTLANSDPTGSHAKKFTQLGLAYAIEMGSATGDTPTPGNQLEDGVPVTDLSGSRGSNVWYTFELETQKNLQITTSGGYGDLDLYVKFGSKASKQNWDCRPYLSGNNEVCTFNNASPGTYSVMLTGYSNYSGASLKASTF

| IC50 [1] [µM] | Ki [1] [µM] | IC50 [2] [µM] | Ki [2] [µM] | SMILES |
| --- | --- | --- | --- | --- |
| 900 | – | – | – | NC1CCc2ccccc2CC1=O (stereo unspecified) |
| – | 78 | > 1000 | – | N[C@@H]1[C@H](O)Cc2ccccc2C[C@@H]1O |
| > 1000 | – | > 1000 | – | N[C@@H]1C(=O)Cc2ccccc2C[C@@H]1O (racemic) |
| – | 4 | > 100 | – | N[C@H]1Cc2ccccc2C[C@@H](O)C1=O (racemic) |
| – | 24 | – | 42 | N[C@H]1Cc2ccccc2C[C@H](O)C1=O (racemic) |
| – | 0.01 | > 1000 | – | N[C@H]1Cc2ccccc2CC(=O)[C@H]1O (racemic) |
